Series [1] relates to soybean phosphatidylcholine liposome. As to the kind of experiment: Inhibition of lipid peroxidation of a multilayer liposome (TBA method). The format is biochemical. The note with it: lipid peroxidation of liposome started with FeCl2, 37° C. 15 minutes, absorbance at 532 nm; read-out: Inhibitor Concentration (IC50). How it is done: The compounds of the present invention were tested for antioxidant effect in terms of the repression of the radical chain reaction of a multilayer liposome.
The liposome was prepared as followings: 30 mg of commercially available soybean phosphatidylcholine (PC, Sigma Chemical Co., U.S.A.) was dissolved in 1 mL of ethanol, and 200 μL of the ethanol/PC solution was added to 10 mL of 10 mM Tris buffer including 50 mM NaCl (pH 7.0) with stirring.
The ability of a compound to inhibit oxidation of the liposome was evaluated as followings: To 400 μL of the liposomes were added the test compound (in buffer or ethanol) and histidine-FeCl3 (167:33 μM final). Oxidation was initiated by the addition of FeCl2 (33 μM final prepared in nitrogen purged water). The mixtures was shaken at 37° C. for 15 minutes. Thereafter, tubes were treated with 1 mL of 0.67% thiobabituric acid (TBA):10% trichloroacetic acid (2:1, v/v) in 0.25 N HCl solution, containing 1.5% (v/v) t-butylhydroxytoluene (BHT) to terminate oxidation. The aliquots were heated to 100° C. for 20 minutes. After ice cooling, 1 mL of chloroform was added to 1 mL supernatant from tubes and tubes were centrifuged. The absorbances of the resulting supernatant were measured at 532 nm (see: Table 1 below).

For series [2] the following is noted: even in the presence of an excess of glutathione (GSH); cited from earlier work.
Series [3] deals with ischemic neuronal degeneration. As to the kind of experiment: Protection of cell damage by ischemia (in vivo). Also on record: species or system Mongolian gerbils (Meriones unguiculatus). The note with it: 60 mg/kg P.O. 30 minutes after ischemic injury (post-treated), 5 min carotid occlusion, 4 days reperfusion, hippocampus. On the procedure:
Male Mongolian gerbils (Meriones unguiculatus) weighing 80-88 g were used in the present study. Each animal was medicated P.O. with vehicle, Ebselen or various test compounds (60 mg/kg in 10% DMSO), after 30 minutes ischemic injury, respectively. 20 animals were allotted into every group. The animals were placed under general anesthesia with a mixture of 2.5% isoflurane in 33% oxygen and 67% nitrous oxide. A midline ventral incision was made in the neck. Both common carotid arteries were isolated, freed of nerve fibers, and occluded using nontraumatic aneurysm clips. Complete interruption of blood flow was confirmed by observing the central artery in eyeballs using ophthalmoscope. After five minutes of occlusion, the aneurysm clips were removed from both common carotid arteries. Restoration of blood flow (reperfusion) was observed directly under the microscope. Sham-operated controls were subjected to the same surgical procedures except that common carotid arteries were not occluded. Body temperature was monitored and maintained at 37° C.±0.5° C. during surgery and during the immediate postoperative period until the animals recovered fully from anesthesia. […]
Images of staining in the hippocampus of each animal were captured with an Applescanner. […] All data obtained from the quantitative data were analyzed using one-way ANOVA to determine statistical significance. […]

Another series has as its system mice. The note with it: oral administration; cited from earlier work.
The subject of another series is rats. Particulars: oral administration; cited from earlier work.
Series [4] in a line: Acute toxicity LD50 in rats. Particulars: rat, in vivo.

Where only a bound is given, the exact number is not on record here.

What is called LD50 is the dose expected to kill half of the subjects tested.

On to `CC(C)(C)N(O)c1ccc(C(=O)Nc2ccc(O)c3ncccc23)cc1` [Example 4, 4-[N-(tert-butyl)-N-hydroxyamino]-N-(8-hydroxyquinolin-5-yl)-benzamide], for which, in series [1], the IC50 was determined as 61.9 µM.

On to `CC(C)(C)N(O)c1ccc(C(=O)Nc2ccccn2)cc1` [Example 2, 4-[N-(tert-butyl)-N-hydroxyamino]-N-pyridin-2-yl-benzamide], for which the IC50 in series [1] was 4.3 µM.

For the compound `O=c1c2ccccc2[se]n1-c1ccccc1` [Ebselen], the solubility in water entry in series [2] is recorded as “very little soluble in water”. Also, in series [3], the “protective effect against ischemic neuronal degeneration” value is listed as 59%. Besides, the LD50 with mice and in the series with rats was ≥ 6,810 mg/kg throughout.

With `Cc1c(C)c2c(c(C)c1O)CCC(C)(C(=O)O)O2` (stereo not drawn) [Trolox, reference compound], the IC50 in series [1] amounted to 10.2 µM.

As to `CC(C)(C)N(O)c1ccc(C(=O)Nc2nccs2)cc1` [Example 1, 4-[N-(tert-butyl)-N-hydroxyamino]-N-thiazol-2-yl-benzamide], the LD50 in series [4] (ip, intraperitoneal administration in rats) was not below 750 mg/kg; in series [4] (oral administration in rats), not below 7000 mg/kg. Besides, in series [1], the IC50 came to 1.44 µM. The “protective effect against ischemic neuronal degeneration” value in series [3] came out at 81%.

Take “4-[N-(tert-butyl)-N-hydroxyamino]-N-pyridin-2-yl-methyl-benzamide [Example 3]”: in series [1], the IC50 amounted to 11.1 µM.
